# Test system: SCD-Selp−/− mice
# Assay: qFILM detection of circulating NETs arriving in the lung microcirculation, SCD-Selp−/− mice
# Assay type: in vivo, mouse
# Conditions: IV 10 μmole/kg oxy-Hb with 10 mg/kg inhibitor vs oxy-Hb alone, significant
# Experimental: (FIG. 5A) Experimental scheme: SCD or SCD-Selp^−/− mice were IV administered 10 μmole/kg oxy-Hb (10 oxy-Hb) without or with 10 mg/kg GSDMD inhibitors LDC75591 or Disulfiram. In FIGS. 5C-5D, venous blood was processed to generate PPP and cNETs detected in PPP using Imaging Flow Cytometry. Imaging Flow Cytometry data was quantified to estimate concentration of cNETs (#cNETs/μl of plasma). In FIGS. 5B, and 5E-5F, quantitative fluorescence intravital lung microscopy (qFILM) was used to detect arrival of circulating NETs (cNETs) within the lung microcirculation. Number of cNETs entering per FOV over a 1-minute duration (#cNETs/FOV/min) were quantified. In FIGS. 5G-5J, qFILM was used to assess the absence or presence of pulmonary vaso-occlusion using the experimental strategy described in FIG. 1A. Pulmonary vaso-occlusions (PVOs) were compared between treatment groups using following two parameters: Number of PVOs per Field of View (#PVOs/FOV) and number of large PVOs (with area>1000 μm^2) per FOV. […]
# Quantitative fluorescence intravital lung microscopy (qFILM) has been used widely for in vivo assessment of pulmonary vasoocclusion in mice with SCD [Bennewitz M F et al., (2017); Vats R, Brzoska T, Bennewitz M F, et al. (2020); Vats R, Tutuncuoglu E, Pradhan-Sundd T, Tejero J, Shaw G D, Sundd P. (2020); Bennewitz M F, Tutuncuoglu E, Gudapati S, et al. (2020)] […]
compound,measurement,value
COc1ccccc1-c1cc2n(n1)Cc1ccc(NC(C)=O)cc1OC2 [LDC7559],"#cNETs/FOV/min in the lung, less than 10 oxy-Hb alone",4 folds
